Data taken from the supplement of paper PMC8967900.

Assays:
Assay in all cases: selective drug sensitivity score (sDSS, relative to normal bone marrow) (sDSS (score)); higher = more potent and effective on the cell line relative to normal bone marrow cells
Conditions in all cases: 72 h
[1] = system: P12-ICHIKAWA
[2] = system: COG-LL-355h
[3] = system: DND-41
[4] = system: MHH-CALL-4
[5] = system: COG-LL-319h
[6] = system: COG-LL-332h
[7] = system: COG-LL-394h
[8] = system: KASUMI-10
[9] = system: PEER
[10] = system: P30-OHKUBO
[11] = system: KASUMI-2
[12] = system: ALL-PO
[13] = system: PF-382
[14] = system: TMD5
[15] = system: LC4-1
[16] = system: MOLT-4
[17] = system: CCRF-HSB2
[18] = system: RCH-ACV
[19] = system: MN-60
[20] = system: KARPAS-45
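Note: ALL cell lines in 384-well plates, five doses spanning 10,000-fold, each plate scaled between vehicle and 100 µmol/L benzalkonium chloride controls, sDSS an adapted area-under-curve metric.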

SMILES	selective drug sensitivity score [1]	selective drug sensitivity score [2]	selective drug sensitivity score [3]	selective drug sensitivity score [4]	selective drug sensitivity score [5]	selective drug sensitivity score [6]	selective drug sensitivity score [7]	selective drug sensitivity score [8]	selective drug sensitivity score [9]	selective drug sensitivity score [10]	selective drug sensitivity score [11]	selective drug sensitivity score [12]	selective drug sensitivity score [13]	selective drug sensitivity score [14]	selective drug sensitivity score [15]	selective drug sensitivity score [16]	selective drug sensitivity score [17]	selective drug sensitivity score [18]	selective drug sensitivity score [19]	selective drug sensitivity score [20]
CNC(=O)c1ccc(-c2cnc3ncc(Cc4ccc5ncccc5c4)n3n2)cc1F [Capmatinib] (top concentration 1000 nM)	-0.06	0.04	0.34	-0.06	14.9	-0.06	-0.06	-0.06	-0.06	-0.06	-0.06	-0.06	-0.06	-0.06	0.64	-0.06	-0.06	-0.06	-0.06	-0.06
COc1cc2c(Oc3ccc4[nH]c(C)cc4c3F)ncnc2cc1OCCCN1CCCC1 [Cediranib] (top concentration 1000 nM)	0	0	0	0	0	0	0	0	0	2.7	0	0	0	3.6	0	0.1	3.4	0	0	0.2
CCN(CC)CCCC(C)Nc1ccnc2cc(Cl)ccc12 (stereo not given) [Chloroquine] (top concentration 100000 nM)	-3.94	-0.34	-0.94	-1.44	-5.84	-0.64	-4.54	-4.24	-0.94	0.26	-8.14	-1.64	-2.34	-4.54	-3.74	-7.24	-2.34	-0.14	-2.74	1.26
C[C@@H](Oc1cc(-c2cnn(C3CCNCC3)c2)cnc1N)c1c(Cl)ccc(F)c1Cl [Crizotinib] (top concentration 1000 nM)	-0.54	2.16	-0.54	-0.54	-0.54	2.76	0.86	-0.54	1.86	-0.54	-0.54	1.46	-0.54	1.66	-0.54	-0.54	4.26	-0.54	-0.54	-0.24
COc1cc2ncnc(Nc3ccc(F)c(Cl)c3)c2cc1NC(=O)/C=C/CN1CCCCC1 [Dacomitinib] (top concentration 1000 nM)	-1.44	1.06	-1.04	1.86	-1.24	-0.84	-1.64	-0.54	-0.14	0.96	-1.64	3.06	-0.94	1.46	-0.94	-1.54	3.76	0.16	-1.64	0.36
CCN(CC)CCN(Cc1ccc(-c2ccc(C(F)(F)F)cc2)cc1)C(=O)Cn1c(SCc2ccc(F)cc2)nc(=O)c2c1CCC2 [Darapladib] (top concentration 1000 nM)	-1.42	-1.42	-0.72	2.68	-1.42	-0.92	-1.42	-1.22	-1.42	0.68	0.98	-1.42	-1.22	6.98	-1.42	-1.42	-0.52	7.28	-1.42	-1.32
C[C@@H]1C[C@H]2[C@@H]3CCC4=CC(=O)C=C[C@]4(C)[C@@]3(F)[C@@H](O)C[C@]2(C)[C@@]1(O)C(=O)CO [Dexamethasone] (top concentration 10000 nM)	28	30.7	36.3	36.7	26.5	1.88	-1.52	-1.52	-0.92	28.6	14.6	43.2	1.48	14.9	12.5	1.48	18.8	38.8	-0.52	24.4
Cc1cc(C)c(CNC(=O)c2cc(-c3ccc(CN4CCOCC4)cc3)cc3c2cnn3C2CCCC2)c(=O)[nH]1 [EPZ-5687] (top concentration 10000 nM)	-0.36	-0.36	-0.36	-0.36	-0.36	-0.36	-0.36	-0.36	-0.36	2.24	-0.36	0.24	-0.36	5.74	-0.36	-0.36	-0.06	-0.36	-0.36	-0.26
C=C1C[C@@H]2CC[C@@]34C[C@H]5O[C@H]6[C@@H](O3)[C@H]3O[C@H](CC[C@@H]3O[C@H]6[C@H]5O4)CC(=O)C[C@@H]3[C@@H](OC)[C@@H](C[C@H](O)CN)O[C@H]3C[C@H]3O[C@@H](CC[C@@H]1O2)C[C@@H](C)C3=C [Eribulin] (top concentration 1000 nM)	16.7	4.4	9.1	5.6	14.8	20.6	6.7	20.2	23.6	19.6	15.5	16.3	15.1	12.5	24	23.3	22.8	25.4	3.8	21.7
O=c1[nH]cc(F)c(=O)[nH]1 [Fluorouracil] (top concentration 10000 nM)	0.46	1.76	-0.64	-0.14	6.56	4.26	-0.34	2.96	-0.64	3.16	1.56	8.56	-0.64	-0.64	5.16	2.76	-0.64	2.96	-0.64	0.46
CC(C)C(=O)Nc1ccc([N+](=O)[O-])c(C(F)(F)F)c1 [Flutamide] (top concentration 10000 nM)	0.74	-0.56	-0.16	1.24	-0.56	-0.56	-0.26	-0.56	0.94	0.94	0.34	-0.56	0.14	6.64	-0.46	-0.46	-0.46	0.14	-0.56	0.74
C[C@]12CC[C@@H]3c4ccc(O)cc4C[C@@H](CCCCCCCCC[S+]([O-])CCCC(F)(F)C(F)(F)F)[C@H]3[C@@H]1CC[C@@H]2O (stereo not given in full) [Fulvestrant] (top concentration 1000 nM)	0	1.3	8.3	0	0	0	0	0	0	0	0	2.3	0	2.3	0	0	0	0	0	0
CCCOc1ccn2c(C(C)=O)cc(-c3ccccc3S(C)(=O)=O)c2c1 [GSK2801] (top concentration 10000 nM)	-0.16	-0.36	-0.26	-0.36	4.44	2.04	-0.16	-0.36	0.34	-0.36	4.84	0.04	0.54	-0.36	0.24	-0.16	-0.36	3.24	-0.36	0.44
Cc1cccc(-c2nn3c(c2-c2ccnc4ccc(C(N)=O)cc24)CCC3)n1 [Galunisertib] (top concentration 1000 nM)	0	0	0	0	0	0	0	0	0	2.9	0	0	0	0	0	0	0	0	0	0
O=C(O)CNC(=O)c1c(O)c2ccccc2n(Cc2ccccc2)c1=O [IOX-2] (top concentration 50000 nM)	-0.42	-0.82	-0.82	-0.82	4.18	-0.62	-0.82	-0.82	-0.82	-0.12	3.38	-0.22	-0.82	-0.82	-0.82	-0.82	-0.82	1.18	-0.42	-0.82
C#Cc1cccc(Nc2ncnc3cc4c(cc23)OCCOCCOCCO4)c1 [Icotinib] (top concentration 10000 nM)	0.6	0.1	0	0	1.8	0.3	0	0	0.7	2.1	2.9	0.7	0.5	7.5	3.2	0.2	2.6	1.2	0.6	1.4
CC(C)Cn1cnc2c(N)nc3ccccc3c21 [Imiquimod] (top concentration 2500 nM)	0	0.6	0	0.9	0	0	0.8	0	0	0	1.5	0.4	0	4.4	0.3	0	0.4	1.7	0	0
N#Cc1ccnc(N2C(=O)CC[C@H]2C(=O)N(c2cncc(F)c2)[C@H](C(=O)NC2CC(F)(F)C2)c2ccccc2Cl)c1 [Ivosidenib] (top concentration 10000 nM)	1	0	0	0	0	1	0	0	0.6	1.1	0.6	0	0.8	1.8	0	0.2	1.6	0	0	0.5
